Experimental data: patent US20090311198A1, “Perhydrolase for Tooth Whitening” (priority 2006, published 2009)
Marks after values point to notes of the source that are not given here.

Key:
[1] = Intrinsic stain removal (tooth whitening) on human enamel specimens, CIELAB colour readings; details: for Total Change (ΔE) in Intrinsic Stain Scores: 20 ml, 30 minute intervals, mean ± SD, n = 8; for Dose-response of tooth whitening (ΔE): 0.20% to 0.01% solutions
Description: In the following Examples, human permanent teeth with natural intrinsic stains were obtained from oral surgeons. Selection of appropriate teeth was based on the presence of intrinsic stain after removal of exogenous stains using methods known in the art involving use of rubber cup polishing with an aqueous pumice slurry. A VITA® dental shade guide was used as a reference for tooth selection. Only specimens with a shade score of A3 or darker after drying were used in these experiments. The test specimens were comprised of cylinders of human enamel 3 mm in diameter mounted in a 10-mm-diameter black acrylic base. The circular pieces of human enamel were cut using a 3-mm diamond core drill (Continental). In order to cut the enamel, the human teeth were first mounted in 2-cm square blocks of self-curing dental acrylic with the labial surface exposed. Each block was then clamped into a small vise and immersed in a container of water to prevent the enamel from burning during the cutting process. Each immersed tooth was positioned directly under and perpendicular to the diamond core drill bit mounted on the end of an electric drill press. At high speed, the diamond core drill was lowered onto the tooth and gentle pressure was applied as the bit cut through the enamel and dentin. The 3-mm piece of cut enamel was then removed from the end of the diamond core drill and embedded with the aid of a circular mold into black, self-curing dental acrylic, providing circular blocks 10 mm in diameter. This was done in such a manner that the areas of tooth substance exposed by the drilling process were sealed by the acrylic, while the 3-mm surface enamel was left exposed. The finished tooth specimens were examined under a dissecting microscope. Specimens with imperfections were discarded. Acceptable specimens were thoroughly rinsed with distilled water, and refrigerated in a humidor until use.
In these experiments, stain on the teeth was measured using the following method. The amount of the intrinsic stain within the teeth was measured by taking color readings with a Minolta CM-503i Spectrophotometer with diffuse illumination/8° viewing angle and 3 mm aperture. Measurements over the entire visible color spectrum were obtained using the CIELAB (Commission Internationale de L'Eclairage, Recommendations on Uniform Color Spaces. Color Difference Equations. Psychometric color Terms, Suppl. 2 to CIE publication 15 (E-13.1) 1971/(TC-1.3), 1978, Paris: Bureau Central de la CIE, 1978) color scale. This scale quantifies color according to 3 parameters, L* (lightness-darkness value), a* (red-green chroma), and b* (yellow-blue chroma). In order to obtain reproducible readings, the enamel specimens were allowed to air-dry at room temperature for 30 minutes before color measurements were taken. When the specimens were exposed to air, the teeth became whiter as they dry within the first few minutes and the color parameters change dramatically, but stabilized after 30 minutes.
Measurements were obtained by aligning the center of the circular 3-mm segment of enamel directly over the 3-mm-diameter targeting aperture of the Minolta spectrophotometer, which enabled accurate positioning of the specimens for each test. An average of 3 color readings using the L*a*b* scale were taken for each specimen.
In this Example, methods of treating the tooth samples are described. Before treatment, the baseline L*a*b* color scores of the tooth specimens were determined and used to stratify the teeth samples into balanced groups of 8 specimens each. For testing, each tooth specimen was immersed in 20 ml of the respective test solution for 30 minutes. The test solutions were stirred at 60 rpm with a mechanical stirrer for the duration of the exposure.
Following each 30-minute treatment period, the specimens were rinsed and then placed back into fresh test solution. […] As a control group, 8 teeth were similarly treated in distilled water. […]

[2] = Hydrolysis of PAA standards in buffer (ABTS assay standard curve); type: physicochemical; details: B(OH)3 buffer; standard concentrations in B(OH)3, pH 8.5 buffer
Protocol: The standard curve was prepared as described below. A working stock of PAA was prepared by diluting 32% 10^4-fold to 0.4 mM in water (note: stock contained acetic acid). […] At ambient temperature, 50 to 100 uL of standard PAA dilution were added to 1 mL of the ABTS reagent. The solution was mixed well and incubated at ambient temperature for 3 minutes. The absorbance at 420 nm (or another chosen wavelength) was then measured.

[3] = aqueous 1% (by weight) solution; ambient to oral range temperatures; cited from earlier work
[4] = dilute 1% aqueous solution, cited from earlier work

## OO [H2O2, hydrogen peroxide]
[1]; 3% (positive control), Hour 1
  Total Change (ΔE) in Intrinsic Stain Scores: 6.21 ± 3.46^a
[1]; 3% (positive control), Hour 2
  Total Change (ΔE) in Intrinsic Stain Scores: 7.15 ± 2.96^a
[1]; 3% (positive control), Hour 4
  Total Change (ΔE) in Intrinsic Stain Scores: 7.28 ± 2.75^a
[1]; 3% (positive control), Hour 8
  Total Change (ΔE) in Intrinsic Stain Scores: 7.48 ± 2.95^a
[1]; 3% (positive control), Hour 10
  Total Change (ΔE) in Intrinsic Stain Scores: 7.77 ± 3.34^a
[1]; 3% (positive control), Hour 12
  Total Change (ΔE) in Intrinsic Stain Scores: 9.00 ± 4.07^a
[1]; 3% (positive control), Hour 14
  Total Change (ΔE) in Intrinsic Stain Scores: 9.68 ± 3.85^a
[1]; 3% (positive control), Hour 16
  Total Change (ΔE) in Intrinsic Stain Scores: 10.68 ± 3.51^a

## CC(=O)OO [Peracetic Acid, peracetic acid]
[2]
  half-life: 25 min
[3]
  Whitening effect on teeth compared with 30% (by weight) aqueous hydrogen peroxide: faster and superior whitening effect
[1]; 0.01% in 100 mmolar phosphate buffer, Hour 1
  Total Change (ΔE) in Intrinsic Stain Scores: 2.98 ± 2.57^b,c,d
[1]; 0.01% in 100 mmolar phosphate buffer, Hour 2
  Total Change (ΔE) in Intrinsic Stain Scores: 4.06 ± 2.51^b
[1]; 0.01% in 100 mmolar phosphate buffer, Hour 4
  Total Change (ΔE) in Intrinsic Stain Scores: 4.09 ± 2.33^b
[1]; 0.01% in 100 mmolar phosphate buffer, Hour 8
  Total Change (ΔE) in Intrinsic Stain Scores: 5.11 ± 2.71^a
[1]; 0.01% in 100 mmolar phosphate buffer, Hour 10
  Total Change (ΔE) in Intrinsic Stain Scores: 5.88 ± 2.55^a
[1]; 0.01% in 100 mmolar phosphate buffer, Hour 12
  Total Change (ΔE) in Intrinsic Stain Scores: 6.79 ± 3.23^a
[1]; 0.01% in 100 mmolar phosphate buffer, Hour 14
  Total Change (ΔE) in Intrinsic Stain Scores: 7.13 ± 3.14^a
[1]; 0.01% in 100 mmolar phosphate buffer, Hour 16
  Total Change (ΔE) in Intrinsic Stain Scores: 7.57 ± 3.05^a
[1]; 0.05% in 100 mmolar phosphate buffer, Hour 1
  Total Change (ΔE) in Intrinsic Stain Scores: 3.41 ± 2.19^b,c,d
[1]; 0.05% in 100 mmolar phosphate buffer, Hour 2
  Total Change (ΔE) in Intrinsic Stain Scores: 3.83 ± 1.81^b
[1]; 0.05% in 100 mmolar phosphate buffer, Hour 4
  Total Change (ΔE) in Intrinsic Stain Scores: 4.72 ± 1.67^b
[1]; 0.05% in 100 mmolar phosphate buffer, Hour 8
  Total Change (ΔE) in Intrinsic Stain Scores: 5.04 ± 1.72^a
[1]; 0.05% in 100 mmolar phosphate buffer, Hour 10
  Total Change (ΔE) in Intrinsic Stain Scores: 6.08 ± 1.25^a
[1]; 0.05% in 100 mmolar phosphate buffer, Hour 12
  Total Change (ΔE) in Intrinsic Stain Scores: 6.55 ± 1.79^a
[1]; 0.05% in 100 mmolar phosphate buffer, Hour 14
  Total Change (ΔE) in Intrinsic Stain Scores: 6.82 ± 1.91^a
[1]; 0.05% in 100 mmolar phosphate buffer, Hour 16
  Total Change (ΔE) in Intrinsic Stain Scores: 7.72 ± 2.15^a
[1]; 0.10% in 100 mmolar phosphate buffer, Hour 1
  Total Change (ΔE) in Intrinsic Stain Scores: 5.60 ± 2.69^a,b
[1]; 0.10% in 100 mmolar phosphate buffer, Hour 2
  Total Change (ΔE) in Intrinsic Stain Scores: 5.38 ± 1.75^a,b
[1]; 0.10% in 100 mmolar phosphate buffer, Hour 4
  Total Change (ΔE) in Intrinsic Stain Scores: 6.09 ± 2.52^a,b
[1]; 0.10% in 100 mmolar phosphate buffer, Hour 8
  Total Change (ΔE) in Intrinsic Stain Scores: 6.58 ± 2.94^a
[1]; 0.10% in 100 mmolar phosphate buffer, Hour 10
  Total Change (ΔE) in Intrinsic Stain Scores: 7.05 ± 3.31^a
[1]; 0.10% in 100 mmolar phosphate buffer, Hour 12
  Total Change (ΔE) in Intrinsic Stain Scores: 7.89 ± 3.47^a
[1]; 0.10% in 100 mmolar phosphate buffer, Hour 14
  Total Change (ΔE) in Intrinsic Stain Scores: 8.71 ± 4.66^a
[1]; 0.10% in 100 mmolar phosphate buffer, Hour 16
  Total Change (ΔE) in Intrinsic Stain Scores: 9.08 ± 4.24^a
[1]; 0.20% in 100 mmolar phosphate buffer, Hour 1
  Total Change (ΔE) in Intrinsic Stain Scores: 5.31 ± 1.75^a,b,c
[1]; 0.20% in 100 mmolar phosphate buffer, Hour 2
  Total Change (ΔE) in Intrinsic Stain Scores: 6.60 ± 2.37^a
[1]; 0.20% in 100 mmolar phosphate buffer, Hour 4
  Total Change (ΔE) in Intrinsic Stain Scores: 7.37 ± 2.85^a
[1]; 0.20% in 100 mmolar phosphate buffer, Hour 8
  Total Change (ΔE) in Intrinsic Stain Scores: 7.54 ± 2.34^a
[1]; 0.20% in 100 mmolar phosphate buffer, Hour 10
  Total Change (ΔE) in Intrinsic Stain Scores: 7.72 ± 3.12^a
[1]; 0.20% in 100 mmolar phosphate buffer, Hour 12
  Total Change (ΔE) in Intrinsic Stain Scores: 8.53 ± 3.65^a
[1]; 0.20% in 100 mmolar phosphate buffer, Hour 14
  Total Change (ΔE) in Intrinsic Stain Scores: 9.08 ± 3.81^a
[1]; 0.20% in 100 mmolar phosphate buffer, Hour 16
  Total Change (ΔE) in Intrinsic Stain Scores: 9.34 ± 4.10^a
[1]; after 8 hours, ANOVA and SNK test, p < 0.05
  Tooth whitening (ΔE) compared with hydrogen peroxide positive control: statistically equivalent to the hydrogen peroxide positive control
[1]; during the first four hours of treatment
  Dose-response of tooth whitening (ΔE): significant dose-response
[1]; up to 16 hours of treatment
  Dose-response of tooth whitening (ΔE): numerical dose-response effect
[4]; ambient temperatures
  Time to substantial decomposition: ≥ 30 days
[4]; storage at 3° C.
  Storage stability: significantly improves stability
